Source: patent US4471131A, “Novel silyl esters of N-phosphonomethylglycine” (Monsanto Company, priority 1983, dated 1984)

Key:
Assay in all cases: post-emergence herbicidal activity, greenhouse
Assay type in all cases: in vivo
Panicum Spp = settings: Table III, formulated in anhydrous tetrahydrofuran
Excerpt: (§1) A good grade of top soil is placed in aluminum pans having holes in the bottom and compacted to a depth of 0.95 to 1.27 cm. from the top of the pan. A predetermined number of seeds of each of several dicotyledonous and moncotyledonous annual plant species and/or vegetative propagules for the perennial plant species were placed on the soil and pressed into the soil surface. The seeds and/or vegetative propagules are covered with soil and leveled. The pans are then placed on a sand bench in the greenhouse and watered from below as needed. After the plants reach the desired age (two to three weeks), each pan, except for the control pans, is removed individually to a spraying chamber and sprayed by means of an atomizer at the rates noted. In the spray solution is an amount of an emulsifying agent mixture to give a spray solution or suspension which contains about 0.4% by weight of the emulsifier. The spray solution or suspension contains a sufficient amount of the candidate chemical in order to give application rates corresponding to those set forth in the tables. The pans were returned to the greenhouse and watered as before and the injury to the plants as compared to the control is observed at approximately two and four weeks and the results recorded. In the tables, WAT means "weeks after treatment."
(§2) The post-emergent herbicidal activity index used in Tables II and III is as follows:
(§3) The plant species utilized in these tests are identified by letter in accordance with the following legend: […]

Yellow Nutsedge = settings: Table II, formulated in anhydrous tetrahydrofuran
Excerpt: as §1, §2, §3

Canada Thistle = settings: Table II, formulated in anhydrous tetrahydrofuran
Excerpt: as §1, §2, §3

Johnsongrass = settings: Table II, formulated in anhydrous tetrahydrofuran
Excerpt: as §1, §2, §3

Downy Brome = settings: formulated in anhydrous tetrahydrofuran
Excerpt: as §1, §2, §3

Morningglory = settings: formulated in anhydrous tetrahydrofuran
Excerpt: as §1, §2, §3

Barnyardgrass = settings: formulated in anhydrous tetrahydrofuran
Excerpt: as §1, §2, §3

Hemp Sesbania = settings: Table III, formulated in anhydrous tetrahydrofuran
Excerpt: as §1, §2, §3

Velvetleaf = settings: formulated in anhydrous tetrahydrofuran
Excerpt: as §1, §2, §3

CCCCOC(=O)CNCP(=O)(O)O[Si](C)(C)C(C)(C)C [Ex. 3, Glycine, N-((([(1,1-Dimethylethyl)Dimethylsilyl]oxy)Hydroxyphosphinyl)Methyl)-, Butyl Ester]
Plant Response Index (S) (Panicum Spp; 2 WAT, 1.1 kg/h): 1 (25-49% inhibition) | Plant Response Index (S) (Panicum Spp; 2 WAT, 5.6 kg/h): 3 (75-99% inhibition) | Plant Response Index (S) (Panicum Spp; 2 WAT, .28 kg/h): 1 (25-49% inhibition) | Plant Response Index (S) (Panicum Spp; 4 WAT, 1.1 kg/h): 2 (50-74% inhibition) | Plant Response Index (S) (Panicum Spp; 4 WAT, 5.6 kg/h): 3 (75-99% inhibition) | Plant Response Index (S) (Panicum Spp; 4 WAT, .28 kg/h): 1 (25-49% inhibition) | Plant Response Index (G) (Yellow Nutsedge; 2 WAT, 5.6 kg/h): 1 (25-49% inhibition) | Plant Response Index (G) (Yellow Nutsedge; 2 WAT, 11.2 kg/h): 1 (25-49% inhibition) | Plant Response Index (G) (Yellow Nutsedge; 4 WAT, 5.6 kg/h): 2 (50-74% inhibition) | Plant Response Index (G) (Yellow Nutsedge; 4 WAT, 11.2 kg/h): 2 (50-74% inhibition) | Plant Response Index (A) (Canada Thistle; 2 WAT, 5.6 kg/h): 1 (25-49% inhibition) | Plant Response Index (A) (Canada Thistle; 2 WAT, 11.2 kg/h): 1 (25-49% inhibition) | Plant Response Index (A) (Canada Thistle; 4 WAT, 5.6 kg/h): 1 (25-49% inhibition) | Plant Response Index (A) (Canada Thistle; 4 WAT, 11.2 kg/h): 2 (50-74% inhibition) | Plant Response Index (I) (Johnsongrass; 2 WAT, 5.6 kg/h): 0 (0-24% inhibition) | Plant Response Index (I) (Johnsongrass; 2 WAT, 11.2 kg/h): 1 (25-49% inhibition) | Plant Response Index (I) (Johnsongrass; 4 WAT, 5.6 kg/h): 1 (25-49% inhibition) | Plant Response Index (I) (Johnsongrass; 4 WAT, 11.2 kg/h): 2 (50-74% inhibition) | Plant Response Index (J) (Downy Brome; Table II, 2 WAT, 5.6 kg/h): 0 (0-24% inhibition) | Plant Response Index (J) (Downy Brome; Table II, 2 WAT, 11.2 kg/h): 0 (0-24% inhibition) | Plant Response Index (J) (Downy Brome; Table II, 4 WAT, 5.6 kg/h): 1 (25-49% inhibition) | Plant Response Index (J) (Downy Brome; Table II, 4 WAT, 11.2 kg/h): 1 (25-49% inhibition) | Plant Response Index (J) (Downy Brome; Table III, 2 WAT, 1.1 kg/h): 1 (25-49% inhibition) | Plant Response Index (J) (Downy Brome; Table III, 2 WAT, 5.6 kg/h): 1 (25-49% inhibition) | Plant Response Index (J) (Downy Brome; Table III, 2 WAT, .28 kg/h): 1 (25-49% inhibition) | Plant Response Index (J) (Downy Brome; Table III, 4 WAT, 1.1 kg/h): 1 (25-49% inhibition) | Plant Response Index (J) (Downy Brome; Table III, 4 WAT, 5.6 kg/h): 1 (25-49% inhibition) | Plant Response Index (J) (Downy Brome; Table III, 4 WAT, .28 kg/h): 0 (0-24% inhibition) | Plant Response Index (D) (Morningglory; Table II, 2 WAT, 5.6 kg/h): 1 (25-49% inhibition) | Plant Response Index (D) (Morningglory; Table II, 2 WAT, 11.2 kg/h): 1 (25-49% inhibition) | Plant Response Index (D) (Morningglory; Table II, 4 WAT, 5.6 kg/h): 1 (25-49% inhibition) | Plant Response Index (D) (Morningglory; Table II, 4 WAT, 11.2 kg/h): 2 (50-74% inhibition) | Plant Response Index (D) (Morningglory; Table III, 2 WAT, 1.1 kg/h): 2 (50-74% inhibition) | Plant Response Index (D) (Morningglory; Table III, 2 WAT, 5.6 kg/h): 2 (50-74% inhibition) | Plant Response Index (D) (Morningglory; Table III, 2 WAT, .28 kg/h): 1 (25-49% inhibition) | Plant Response Index (D) (Morningglory; Table III, 4 WAT, 1.1 kg/h): 2 (50-74% inhibition) | Plant Response Index (D) (Morningglory; Table III, 4 WAT, 5.6 kg/h): 2 (50-74% inhibition) | Plant Response Index (D) (Morningglory; Table III, 4 WAT, .28 kg/h): 1 (25-49% inhibition) | Plant Response Index (K) (Barnyardgrass; Table II, 2 WAT, 5.6 kg/h): 2 (50-74% inhibition) | Plant Response Index (K) (Barnyardgrass; Table II, 2 WAT, 11.2 kg/h): 2 (50-74% inhibition) | Plant Response Index (K) (Barnyardgrass; Table II, 4 WAT, 5.6 kg/h): 2 (50-74% inhibition) | Plant Response Index (K) (Barnyardgrass; Table II, 4 WAT, 11.2 kg/h): 3 (75-99% inhibition) | Plant Response Index (K) (Barnyardgrass; Table III, 2 WAT, 1.1 kg/h): 2 (50-74% inhibition) | Plant Response Index (K) (Barnyardgrass; Table III, 2 WAT, 5.6 kg/h): 2 (50-74% inhibition) | Plant Response Index (K) (Barnyardgrass; Table III, 2 WAT, .28 kg/h): 1 (25-49% inhibition) | Plant Response Index (K) (Barnyardgrass; Table III, 4 WAT, 1.1 kg/h): 2 (50-74% inhibition) | Plant Response Index (K) (Barnyardgrass; Table III, 4 WAT, 5.6 kg/h): 3 (75-99% inhibition) | Plant Response Index (K) (Barnyardgrass; Table III, 4 WAT, .28 kg/h): 1 (25-49% inhibition) | Plant Response Index (R) (Hemp Sesbania; 2 WAT, 1.1 kg/h): 1 (25-49% inhibition) | Plant Response Index (R) (Hemp Sesbania; 2 WAT, 5.6 kg/h): 4 (100% inhibition) | Plant Response Index (R) (Hemp Sesbania; 2 WAT, .28 kg/h): 1 (25-49% inhibition) | Plant Response Index (R) (Hemp Sesbania; 4 WAT, 1.1 kg/h): 1 (25-49% inhibition) | Plant Response Index (R) (Hemp Sesbania; 4 WAT, 5.6 kg/h): 4 (100% inhibition) | Plant Response Index (R) (Hemp Sesbania; 4 WAT, .28 kg/h): 0 (0-24% inhibition) | Plant Response Index (C) (Velvetleaf; Table II, 2 WAT, 5.6 kg/h): 0 (0-24% inhibition) | Plant Response Index (C) (Velvetleaf; Table II, 2 WAT, 11.2 kg/h): 1 (25-49% inhibition) | Plant Response Index (C) (Velvetleaf; Table II, 4 WAT, 5.6 kg/h): 1 (25-49% inhibition) | Plant Response Index (C) (Velvetleaf; Table II, 4 WAT, 11.2 kg/h): 2 (50-74% inhibition) | Plant Response Index (C) (Velvetleaf; Table III, 2 WAT, 1.1 kg/h): 2 (50-74% inhibition) | Plant Response Index (C) (Velvetleaf; Table III, 2 WAT, 5.6 kg/h): 3 (75-99% inhibition) | Plant Response Index (C) (Velvetleaf; Table III, 2 WAT, .28 kg/h): 1 (25-49% inhibition) | Plant Response Index (C) (Velvetleaf; Table III, 4 WAT, 1.1 kg/h): 2 (50-74% inhibition) | Plant Response Index (C) (Velvetleaf; Table III, 4 WAT, 5.6 kg/h): 4 (100% inhibition) | Plant Response Index (C) (Velvetleaf; Table III, 4 WAT, .28 kg/h): 2 (50-74% inhibition)
